Holding throughout (assay): competitive ABPP potency and off-target profiling of APT1/APT2 inhibitors – cell lysate, mouse brain membrane proteome, FP-Rh fluorescence, powders, selectivity assay for LYPLA1/LYPLA2 inhibitor project, late-stage follow-up (AID 743117)
The subject of one assay is LYPLA2. The following applies: gel-based ABPP FP-Rh fluorescence, at 100 µM (top of the series).
Assay [1] addresses Monoacylglycerol lipase ABHD6 (Mus musculus) (UniProt Q8R2Y0). The following applies: gel-based ABPP FP-Rh fluorescence, measured here: ABHD6 Selectivity, anti-target concentration >50% inhibition, stronger effect = lower value.
The next assay concerns LYPLA1. To be noted: gel-based ABPP FP-Rh fluorescence, at 100 µM (top of the series).
The subject of a further assay is ABHD12 Selectivity. To be noted: gel-based ABPP FP-Rh fluorescence, measured here: ABHD12 Selectivity, anti-target concentration >50% inhibition, stronger effect = lower value.
The test system of a further assay is FAAH Selectivity. The following applies: gel-based ABPP FP-Rh fluorescence, measured here: FAAH Selectivity, anti-target concentration >50% inhibition, stronger effect = lower value.
A further assay relates to MAGL Selectivity. To be noted: gel-based ABPP FP-Rh fluorescence, measured here: MAGL Selectivity, anti-target concentration >50% inhibition, stronger effect = lower value.
The next assay has as its target ABHD4 Selectivity (UniProt Q8VD66). To be noted: gel-based ABPP FP-Rh fluorescence, measured here: ABHD4 Selectivity, anti-target concentration >50% inhibition, stronger effect = lower value.
A further assay relates to APEH Selectivity. The following applies: gel-based ABPP FP-Rh fluorescence, measured here: APEH Selectivity, anti-target concentration >50% inhibition, stronger effect = lower value.

The structures appear in SMILES notation. Active and inactive are the calls of the source.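 Rule for the calls: active = 50% or more inhibition of both lipases LYPLA1 and LYPLA2, with off-target enzymes other than ABHD6 below 50%; inactive = below 50% on either lipase, or hitting an off-target enzyme.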

Chain of ABHD4 Selectivity (Q8VD66 whole entry, looked up): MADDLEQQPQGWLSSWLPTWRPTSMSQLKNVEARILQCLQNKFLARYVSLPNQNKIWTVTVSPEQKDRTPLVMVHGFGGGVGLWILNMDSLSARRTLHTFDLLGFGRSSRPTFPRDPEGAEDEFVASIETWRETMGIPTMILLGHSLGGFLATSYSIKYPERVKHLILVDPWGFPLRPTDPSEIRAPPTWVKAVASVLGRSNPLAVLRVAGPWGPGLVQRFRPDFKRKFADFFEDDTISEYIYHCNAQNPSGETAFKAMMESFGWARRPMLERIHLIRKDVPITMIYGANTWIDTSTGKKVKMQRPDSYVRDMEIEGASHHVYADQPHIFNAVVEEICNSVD
Chain of Monoacylglycerol lipase ABHD6 (Mus musculus) (Q8R2Y0 whole entry, looked up): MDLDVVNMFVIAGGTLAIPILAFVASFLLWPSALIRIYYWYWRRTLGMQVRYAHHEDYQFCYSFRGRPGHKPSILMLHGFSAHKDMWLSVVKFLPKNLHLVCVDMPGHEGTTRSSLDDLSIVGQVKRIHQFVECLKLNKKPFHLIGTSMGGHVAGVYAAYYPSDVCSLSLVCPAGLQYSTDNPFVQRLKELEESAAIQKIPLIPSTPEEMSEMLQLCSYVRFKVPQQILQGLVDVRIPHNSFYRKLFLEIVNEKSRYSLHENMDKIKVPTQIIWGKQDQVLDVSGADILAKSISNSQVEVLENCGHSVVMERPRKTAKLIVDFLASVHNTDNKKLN

As usually defined, the inhibition is the share of the control response that was lost under treatment. As for `CC(C)(C)OC(=O)N1CCN2C(=O)N(OC(=O)N3CCN(C(c4ccc(Cl)cc4)c4ccc(Cl)cc4)CC3)C(=O)C2C1` (stereo not given), the inhibition in the assay on LYPLA2 and with LYPLA1 was 60% (inactive) each time. Besides, the concentration for >50% inhibition in assay [1] was determined as 0.1 µM.
Consider `O=C(ON1C(=O)C2CN(C(=O)c3ccc(F)c([N+](=O)[O-])c3)CCN2C1=O)N1CCC(CCc2ccc(Cl)cc2)CC1` (stereo not given), for which the concentration for >50% inhibition was determined as 10 µM in the assay on ABHD12 Selectivity, 10 µM in the assay with FAAH Selectivity, 0.1 µM in assay [1] and 100 µM in the assay on MAGL Selectivity. Further, the inhibition with LYPLA2 and in the assay with LYPLA1 was 100% in each case.
With `CC(C)(C)OC(=O)N1CCN2C(=O)N(OC(=O)N3CCOCC3Cc3ccccc3)C(=O)C2C1` (stereo not given), the inhibition with LYPLA2 and in the assay on LYPLA1 was 0% (inactive) throughout. The same molecule gave a concentration for >50% inhibition in assay [1] of 0.1 µM.
In the case of `COC(=O)C1CCN(C(=O)ON2C(=O)C3CN(C(=O)OC(C)(C)C)CCN3C2=O)CC1` (stereo not given), the inhibition in the assay on LYPLA2 and in the assay on LYPLA1 was 25% (inactive) in each case. In assay [1], this molecule displayed a concentration for >50% inhibition of 0.1 µM.
Consider `O=C(ON1C(=O)C2CN(CCc3ccccc3)CCN2C1=O)N1CCC(CCc2ccc(Cl)cc2)CC1` (stereo not given), for which the concentration for >50% inhibition worked out at 10 µM on ABHD4 Selectivity, 10 µM in the assay with FAAH Selectivity, 0.1 µM in assay [1] and 10 µM in the assay with MAGL Selectivity. Moreover, the inhibition in the assay with LYPLA2 and in the assay on LYPLA1 was 100% (inactive) throughout.
`CC(C)(C)OC(=O)N1CCN2C(=O)N(OC(=O)N3CCCCC3)C(=O)C2C1` (stereo not given): the inhibition with LYPLA2 and with LYPLA1 was 25% (inactive) throughout. Further, the concentration for >50% inhibition in assay [1] amounted to 0.1 µM; in the assay on APEH Selectivity, 100 µM.
For `CC(C)(C)OC(=O)N1CCN2C(=O)N(OC(=O)N3CCC(C(=O)Nc4ccccc4)CC3)C(=O)C2C1` (stereo not given), the inhibition was 25% (inactive) with LYPLA2 and 50% (inactive) in the assay with LYPLA1. For the same molecule, the concentration for >50% inhibition with FAAH Selectivity turned out to be 100 µM; in assay [1] it was 0.1 µM.
As to `CC(C)(C)OC(=O)N1CCN2C(=O)N(OC(=O)N3CCC(CCc4ccc(Cl)cc4)CC3)C(=O)C2C1` (stereo not given), the concentration for >50% inhibition amounted to 10 µM in the assay on ABHD12 Selectivity, 1 µM in the assay on FAAH Selectivity, 0.1 µM in assay [1] and 100 µM in the assay on MAGL Selectivity. Moreover, the inhibition with LYPLA2 and with LYPLA1 was 100% throughout.
For the molecule `CC(C)(C)OC(=O)N1CCN2C(=O)N(OC(=O)N3CCN(CCc4ccccc4)CC3)C(=O)C2C1` (stereo not given), the concentration for >50% inhibition came out at 100 µM with ABHD12 Selectivity, 100 µM with FAAH Selectivity and 0.1 µM in assay [1]. The inhibition in the assay on LYPLA2 was 75% (inactive); in the assay with LYPLA1 it was 90% (inactive).
Turning to `CCN(C(=O)C1CCN(C(=O)ON2C(=O)C3CN(C(=O)OC(C)(C)C)CCN3C2=O)CC1)c1ccccc1` (stereo not given), the inhibition in the assay on LYPLA2 and in the assay on LYPLA1 was 100% (inactive) in each case. Besides, the concentration for >50% inhibition in assay [1] was 0.1 µM.
As to `CC(C)(C)CC(=O)N1CCN2C(=O)N(OC(=O)N3CCC(CCc4ccc(Cl)cc4)CC3)C(=O)C2C1` (stereo not given), the concentration for >50% inhibition came out at 10 µM in the assay with ABHD12 Selectivity; 100 µM at ABHD4 Selectivity; 1 µM in the assay on FAAH Selectivity; 0.1 µM in assay [1]; 10 µM with MAGL Selectivity. Further, the inhibition with LYPLA2 and in the assay on LYPLA1 was 100% throughout.
For `O=C(ON1C(=O)C2CN(C(=O)N3CCCC3)CCN2C1=O)N1CCC(CCc2ccc(Cl)cc2)CC1` (stereo not given), the concentration for >50% inhibition stood at 100 µM in the assay with ABHD12 Selectivity; 100 µM at ABHD4 Selectivity; 1 µM in the assay on FAAH Selectivity; 0.1 µM in assay [1]; 100 µM in the assay with MAGL Selectivity. Besides, the inhibition in the assay with LYPLA2 and in the assay on LYPLA1 was 100% throughout.
On to `O=C(ON1C(=O)C2CN(C(=O)N3CCCCC3)CCN2C1=O)N1CCC(CCc2ccc(Cl)cc2)CC1` (stereo not given), for which the concentration for >50% inhibition came out at 10 µM in the assay on ABHD12 Selectivity; 10 µM at ABHD4 Selectivity; 1 µM with FAAH Selectivity; 0.1 µM in assay [1]; 10 µM in the assay with MAGL Selectivity. Moreover, the inhibition in the assay on LYPLA2 and in the assay with LYPLA1 was 100% each time.
For `Cc1ccc(C(=O)N2CCN3C(=O)N(OC(=O)N4CCC(CCc5ccc(Cl)cc5)CC4)C(=O)C3C2)cc1` (stereo not given), the concentration for >50% inhibition in the assay with ABHD12 Selectivity is 10 µM; in the assay with FAAH Selectivity, 10 µM; in assay [1], 0.1 µM; with MAGL Selectivity it was 100 µM. Moreover, the inhibition in the assay with LYPLA2 and with LYPLA1 was 100% each time.
`O=C(ON1C(=O)C2CN(C(=O)N3CCOCC3)CCN2C1=O)N1CCC(CCc2ccc(Cl)cc2)CC1` (stereo not given): the concentration for >50% inhibition turned out to be 100 µM in the assay on ABHD12 Selectivity, 10 µM in the assay on FAAH Selectivity, 0.1 µM in assay [1] and 100 µM in the assay with MAGL Selectivity. In addition, the inhibition in the assay with LYPLA2 and in the assay on LYPLA1 was 100% each time.
On to `O=C(Cc1ccccc1)N1CCN2C(=O)N(OC(=O)N3CCC(CCc4ccc(Cl)cc4)CC3)C(=O)C2C1` (stereo not given), for which the inhibition with LYPLA2 and in the assay with LYPLA1 was 100% in each case. The concentration for >50% inhibition in the assay with FAAH Selectivity came to 1 µM; in assay [1], 0.1 µM; with MAGL Selectivity, 10 µM.
With `CN(C)c1ccc(C(=O)N2CCN3C(=O)N(OC(=O)N4CCC(CCc5ccc(Cl)cc5)CC4)C(=O)C3C2)cc1` (stereo not given), the concentration for >50% inhibition stood at 10 µM with ABHD12 Selectivity, 10 µM in the assay with FAAH Selectivity and 0.1 µM in assay [1]. Moreover, the inhibition in the assay with LYPLA2 and in the assay with LYPLA1 was 100% each time.
As for `O=C(ON1C(=O)C2CN(Cc3ccc(Br)cc3)CCN2C1=O)N1CCC(CCc2ccc(Cl)cc2)CC1` (stereo not given), the concentration for >50% inhibition on ABHD4 Selectivity turned out to be 1 µM; in the assay with FAAH Selectivity, 1 µM; in assay [1], 0.1 µM; in the assay with MAGL Selectivity, 100 µM. Besides, the inhibition with LYPLA2 and in the assay with LYPLA1 was 90% (inactive) in each case.
`O=C(ON1C(=O)C2CN(C(=O)c3ccc(Br)cc3)CCN2C1=O)N1CCC(CCc2ccc(Cl)cc2)CC1` (stereo not given): the concentration for >50% inhibition in the assay on ABHD12 Selectivity came to 10 µM; at ABHD4 Selectivity, 100 µM; with FAAH Selectivity, 10 µM; in assay [1], 0.1 µM; with MAGL Selectivity, 100 µM. Moreover, the inhibition in the assay with LYPLA2 and in the assay on LYPLA1 was 100% in each case.
As for `COc1ccc(C(=O)N2CCN3C(=O)N(OC(=O)N4CCC(CCc5ccc(Cl)cc5)CC4)C(=O)C3C2)cc1` (stereo not given), the concentration for >50% inhibition came out at 10 µM in the assay on ABHD12 Selectivity, 10 µM in the assay with FAAH Selectivity, 0.1 µM in assay [1] and 10 µM with MAGL Selectivity. In addition, the inhibition in the assay with LYPLA2 and with LYPLA1 was 100% throughout.

The values above are taken from PubChem BioAssay AID743117 (The Scripps Research Institute Molecular Screening Center, 2013).
